# From patent publication US11726102B2, “Particle-based drug detection method and device embodiments” (Washington State University, priority 2015, dated 2023)
# Several values for one entry are separate records, joined by “and”; a condition that tells them apart may be missing. Identical values can stand only once. Like-named read-outs stand apart in the source and are kept apart here.
# Tests used:
# [1] = at 25° C.; cited from earlier work
# [2] = cited from earlier work
# [3] = cited from earlier work; remark: listed apart in the source
# [4] = THC on swab and in spit after cannabis inhalation (HPLC-MS); conditions: saliva spit into collection vial after inhaling cannabis; one line per volunteer (V14, V27, V40)
structure (smiles),measurement,setting,value
"CCCCCc1cc(O)c2c(c1)OC(C)(C)[C@@H]1CCC(C)=C[C@@H]21 [THC, Δ^9-tetrahydrocannabinol]",vapor pressure,[1],4.6×10^−8 mmHg
same,time THC can be detected in the blood,"[2]; after inhalation, blood analyses by GC-MS or LC-MS",3.5 to 5.5 h
same,time detectable in human samples after use,[2]; chronic users,up to 15 days
same,time detectable in human samples after use,[2]; occasional users,1.3 days
same,time for the concentration in the body to build up to intoxication levels,[3]; after being consumed,at least 20 minutes
same,psychoactive effects of THC felt after initial consumption,"[3]; after inhalation, estimated",2 to 4 h
same,THC in Spit,[4],2110.1 ng and 2259.2 ng and 129.6 ng
